The values below come from US20060270694A1, “JAK kinase inhibitors and their uses” (Rigel Pharmaceuticals, Inc., priority 2005, published 2006).

For the assay, the system named is JAK kinase (JAK1 and JAK3). Briefly: IL-4 activation assay: CD23 upregulation in IL-4 stimulated Ramos B-cells, FACS. It is filed as cell-based, human. The method, then: The selectivity of the compounds illustrated in TABLES 1 and 2 for JAK kinases as compared to Syk kinase was confirmed in cellular assays designed to test for JAK and Syk inhibition. Briefly, JAK inhibition was tested in human Ramos B-cells activated with IL-4. Twenty to 24 hours post stimulation, the cells are stained for upregulation of CD23 and analyzed by FACS. Stimulation of the B-cells with IL-4 leads to the activation of the JAK/STAT pathway through phosphorylation of the JAK kinase JAK1 and JAK3, which in turn phosphorylate and activate transcription of factor […].
For the assay, human Ramos B-cells (ATCC, Catalog No. CRL-1596) are cultured in RPMI 1640 medium (Cellgro, Catalog No. 10-040-CM) containing 10% fetal bovine serum (JRH, Catalog No. 12106-500M) according to the propagation protocol supplied with the cells, and maintained at a density of approximately 3.5×10^5 cells/ml. The day before the assay, the cells are diluted to 3.5×10^5 cells/ml to insure they are in the logorithmic growth phase. The cells are spun down, and suspended in RPMI 1640 medium containing 5% fetal bovine serum to a density of 3.5×10^4 cells/ml and aliquots dispensed into a 96-well tissue culture plate. Cells are incubated with test compound (dissolved in DMSO) or DMSO (control) for 1 hr at 37° C. and then stimulated with IL-4 (Pepotech, Catalog No. 200-04) for 20-24 hours (final concentration is 50 Units/ml). Cells are then spun down, stained with anti-CD23-PE antibody (BD Pharmigen, Catalog No.555711) and analyzed by FACS.

The mark [1] stands for this setting: TABLE 1, IC50 CHMC degranulation / IC50 IL-4 Ramos CD23, minimum ratio, calculated using Syk IC50 of 50 μM (upper limit of assay).
The mark [2] stands for this setting: TABLE 2, IC50 CHMC degranulation (tryptase) / IC50 IL-4 Ramos CD23.

On to `CN1CCN(c2ccc(Nc3ncc(F)c(NC4CC(C)(C)N(C)C(C)(C)C4)n3)cc2Cl)CC1` [Cmpd 1], for which the “IC50 Ratio (Syk/JAK)” value under setting [1] is 207.

Regarding `Cc1cc(Nc2ncc(F)c(NC3CCCC3C(N)=O)n2)ccc1N1CCN(C)CC1` (stereo not shown) [Cmpd 2], the “IC50 Ratio (Syk/JAK)” value under setting [1] is 155. Regarding `Cc1ccc(Nc2ccnc(Nc3ccc(C)c([N+](=O)[O-])c3)n2)cc1[N+](=O)[O-]` [Cmpd 3], the “IC50 Ratio (Syk/JAK)” value under setting [1] is on record as 147.

As for `Cc1noc(COc2ccc(Nc3nc(Nc4cc(Cl)c(O)c(Cl)c4)ncc3F)cc2)n1` [Cmpd 4], the “IC50 Ratio (Syk/JAK)” value under setting [1] is listed as 145. Take `COC(=O)c1cc(Nc2ncc(F)c(Nc3ccc4c(c3)OCCO4)n2)cc(-c2ncco2)c1` [Cmpd 5]: the “IC50 Ratio (Syk/JAK)” value under setting [1] is on record as 105. On the same count and under the same terms, under `NC(=O)c1ccc(Nc2ncc(F)c(NC3CCCC3)n2)cc1` [Cmpd 6] stands 70; under `CNC(=O)n1ccc2ccc(Nc3nc(Nc4cc(C)cc(C)c4)ncc3F)cc21` [Cmpd 7], 57.

Turning to `CNC(=O)COc1cccc(Nc2ncc(F)c(Nc3ccc(OC)c(CN(C)C)c3)n2)c1` [Cmpd 8], the “IC50 Ratio (Syk/JAK)” value under setting [1] was 51. With `CCNC(=O)Nc1ccc(Nc2ncc(F)c(Nc3ccc(NC(=O)NCC)cc3)n2)cc1` [Cmpd 9], the “IC50 Ratio (Syk/JAK)” value under setting [1] was 47. As to `CCOC(=O)c1cnc(Nc2ccc3[nH]ncc3c2)nc1Nc1ccc2[nH]ncc2c1` [Cmpd 10], the “IC50 Ratio (Syk/JAK)” value under setting [1] is 43. For `CC(C)Nc1nc(Nc2cccc(N3CCN(C)CC3)c2)ncc1F` [Cmpd 11], the “IC50 Ratio (Syk/JAK)” value under setting [1] is 38. As for `Oc1cccc(Nc2ncc(F)c(Nc3cccc(-c4nnc(-c5ccccc5)o4)c3)n2)c1` [Cmpd 12], the “IC50 Ratio (Syk/JAK)” value under setting [1] is 36. With `CNC(=O)C1=Cc2cccc(Nc3ncc(F)c(Nc4cc(C)cc(C)c4)n3)c2C1` [Cmpd 13], the “IC50 Ratio (Syk/JAK)” value under setting [1] is 26. On the same count and under the same terms, to `Cc1cc(Nc2ncc(F)c(N[C@@H]3CC=CC[C@H]3C(N)=O)n2)ccc1N1CCN(C)CC1` [Cmpd 14] belongs 25; to `COc1ccc(Nc2ccnc(Nc3ccc(OC)c(-c4ccccc4)c3)n2)cc1-c1ccccc1` [Cmpd 15], 24.

As for `Fc1cnc(Nc2ccc3c(c2)OCCO3)nc1Nn1cccc1` [Cmpd 16], the “IC50 Ratio (Syk/JAK)” value under setting [1] is recorded as 22.

Consider `CCCCOc1ccc(Nc2nc(Nc3ccc4c(c3)OCCO4)ncc2F)cc1` [Cmpd 17], for which the “IC50 Ratio (Syk/JAK)” value under setting [1] is on record as 20. Regarding `O=C(O)C1CCC(Nc2nc(Nc3ccc4c(c3)OCCO4)ncc2F)CC1` (stereo not shown) [Cmpd 18], the “IC50 Ratio (Syk/JAK)” value under setting [1] is 20.

On to `Fc1cnc(Nc2ccc3c(c2)OCCO3)nc1NC1CCCCC1` [Cmpd 19], for which the “IC50 Ratio (Syk/JAK)” value under setting [1] is on record as 15. On the same count and under the same terms, to `CC(=O)N(C)c1ccc(Nc2ncc(F)c(N3CCN(C)CC3)n2)cc1` [Cmpd 20] belongs 14; to `COc1ccc(Nc2nc(Nc3cc(Cl)c(OC)c(Cl)c3)ncc2F)cc1Cl` [Cmpd 21], 14; to `CNC(=O)COc1cccc(Nc2ncc(F)c(Nc3ccc(OC)c(CN(C(=O)OC(C)(C)C)C(C)C)c3)n2)c1` [Cmpd 22], 13. As to `CCN1CCN(c2ccc(Nc3ncc(F)c(NC4CC(C)(C)N(C)C(C)(C)C4)n3)cn2)CC1` [Cmpd 23], the “IC50 Ratio (Syk/JAK)” value under setting [1] is given as 12. Still for that read-out and setting: to `Fc1ccc(Nc2ncc(F)c(Nc3ccc4c(c3)OCCO4)n2)cc1Cl` [Cmpd 24] belongs 12. The same measure, in the same setting: to `COC(=O)c1ccc(Nc2ncc(F)c(Nc3ccc(OC)c(Cl)c3)n2)cc1` [Cmpd 25] belongs 13. With `C[C@H]1Oc2ccc(Nc3nc(Nc4ccc(C(=O)NCC(=O)O)cc4)ncc3F)cc2NC1=O` [Cmpd 26], the “IC50 Ratio (Syk/JAK)” value under setting [1] is reported as 10. In the case of `CCN(CC)CCNC(=O)c1ccc(Nc2ncc(F)c(Nc3ccc4c(c3)NC(=O)[C@H](C)O4)n2)cc1` [Cmpd 27], the “IC50 Ratio (Syk/JAK)” value under setting [2] worked out at 247. For the compound `Cc1cc(Nc2nc(Nc3ccc(C(N)=O)cc3)ncc2F)ccc1N1CCN(C)CC1` [Cmpd 28], the “IC50 Ratio (Syk/JAK)” value under setting [2] turned out to be 146.

`Fc1cnc(Nc2cccc(-c3ncco3)c2)nc1Nc1cc(C2CC2)n[nH]1` [Cmpd 29]: under setting [2], the “IC50 Ratio (Syk/JAK)” value came out at 109. With `CN1CCN(c2ccc(Nc3ncc(F)c(Nc4cc(C5CC5)n[nH]4)n3)cc2Cl)CC1` [Cmpd 30], the “IC50 Ratio (Syk/JAK)” value under setting [2] is 85.

For the compound `CNC(=O)COc1cc(Nc2ncc(F)c(Nc3cccc(O)c3)n2)cc(OCC(=O)NC)c1` [Cmpd 31], under setting [2], the “IC50 Ratio (Syk/JAK)” value was found to be 74. The same measure, in the same setting: under `NCc1ccc(Nc2ncc(F)c(Nc3ccc(CN)cc3)n2)cc1` [Cmpd 32] stands 65; under `CCN(CC)CCNC(=O)c1ccc(Nc2ncc(F)c(Nc3ccc4c(c3)NC(=O)C(CCO)O4)n2)cc1` (stereo not shown) [Cmpd 33], 57. Turning to `CCN(CC)CCNC(=O)c1ccc(Nc2ncc(F)c(Nc3ccc(OCc4nc(C)no4)cc3)n2)cc1` [Cmpd 34], the “IC50 Ratio (Syk/JAK)” value under setting [2] stood at 55. With `COc1cc(OC)cc(N(C)c2nc(Nc3cc(C)cc(C)c3)ncc2F)c1` [Cmpd 35], the “IC50 Ratio (Syk/JAK)” value under setting [2] is on record as 44. Still for that read-out and setting: under `COc1ccc(Nc2nc(Nc3ccc(N4CCN(C)CC4)c(C#N)c3)ncc2F)cc1Cl` [Cmpd 36] stands 43.

On to `C[C@@H]1Oc2ccc(Nc3nc(Nc4ccc(CN)cc4)ncc3F)cc2NC1=O` [Cmpd 37], for which the “IC50 Ratio (Syk/JAK)” value under setting [2] is given as 42. Still for that read-out and setting: under `CCN(CC)CCNC(=O)c1ccc(Nc2ncc(F)c(NC3CCCC3)n2)cc1` [Cmpd 38] stands 39; under `CN1CCN(c2ccc(Nc3ncc(F)c(NC4CCC4)n3)cc2CO)CC1` [Cmpd 39], 59. Turning to `CN1CCN(c2cccc(Nc3ncc(F)c(Nc4ccc5c(n4)NCCO5)n3)c2)CC1` [Cmpd 40], the “IC50 Ratio (Syk/JAK)” value under setting [2] was determined as 32. Still for that read-out and setting: to `COc1ccc(N(C)c2nc(Nc3cccc(-c4ncco4)c3)ncc2F)cc1OC` [Cmpd 41] belongs 32. Same read-out and setting: under `C[C@@H]1Oc2ccc(Nc3nc(Nc4ccc(C(N)=O)cc4)ncc3F)cc2NC1=O` [Cmpd 42] stands 32.

Regarding `COc1c(C)cc(Nc2ncc(F)c(NC3=NCCN3)n2)cc1C` [Cmpd 43], the “IC50 Ratio (Syk/JAK)” value under setting [2] came to 31. With `NCc1cccc(Nc2ncc(F)c(Nc3cccc(CN)c3)n2)c1` [Cmpd 44], under setting [2], the “IC50 Ratio (Syk/JAK)” value is reported as 30.

For `COc1ccc(Nc2nc(Nc3cccc(-c4ncco4)c3)ncc2F)cc1OC` [Cmpd 45], the “IC50 Ratio (Syk/JAK)” value under setting [2] is 30. Still for that read-out and setting: under `NC(=O)c1ccc(Nc2ncc(F)c(Nc3ccc(C(N)=O)cc3)n2)cc1` [Cmpd 46] stands 30; under `CCN(CC)CCNC(=O)c1ccc(Nc2ncc(F)c(Nc3cc(OC)cc(OC)c3)n2)cc1` [Cmpd 47], 29; under `CCN(CC)CCNC(=O)c1ccc(Nc2ncc(F)c(Nc3ccc(Cl)c(OC)c3)n2)cc1` [Cmpd 48], 28. Consider `Cc1cc(Nc2ncc(F)c(NC3CC(C)(C)N(C)C(C)(C)C3)n2)ccc1N1CCN(C)CC1` [Cmpd 49], for which, under setting [2], the “IC50 Ratio (Syk/JAK)” value stood at 26. The same measure, in the same setting: to `COc1ccc(Nc2nc(Nc3ccc(N4CCN(C)CC4)c(C(N)=O)c3)ncc2F)cc1Cl` [Cmpd 50] belongs 26; to `COc1ccc(Nc2ncc(F)c(Nc3ccc(OCc4nc(C)no4)cc3)n2)cc1Cl` [Cmpd 51], 25.

For the compound `NCCNC(=O)c1cc2cc(Nc3ncc(F)c(Nc4ccc5oc(C(=O)NCCN)cc5c4)n3)ccc2o1` [Cmpd 52], the “IC50 Ratio (Syk/JAK)” value under setting [2] was determined as 25. Consider `CNC(=O)CNC(=O)c1ccc(Nc2ncc(F)c(Nc3ccc4c(c3)C(N)CCO4)n2)cc1` (stereo not shown) [Cmpd 53], for which the “IC50 Ratio (Syk/JAK)” value under setting [2] is reported as 24. For the compound `N#Cc1ccc(Nc2ncc(F)c(Nc3ccc(C#N)cc3)n2)cc1` [Cmpd 54], the “IC50 Ratio (Syk/JAK)” value under setting [2] is given as 24. On to `CNC(=O)c1cc(Nc2ncc(F)c(Nc3ccc(OC)c(Cl)c3)n2)ccc1N1CCN(C)CC1` [Cmpd 55], for which the “IC50 Ratio (Syk/JAK)” value under setting [2] is reported as 23. On the same count and under the same terms, to `CN1CCN(C(=O)CNc2cccc(Nc3ncc(F)c(Nc4cccc(NCCO)c4)n3)c2)CC1` [Cmpd 56] belongs 21; to `O=C1Nc2ccc(Nc3nc(Nc4cccc(-c5ncco5)c4)ncc3F)cc2OC1CCO` (stereo not shown) [Cmpd 57], 21. Turning to `CCN(CC)CCNC(=O)c1ccc(Nc2ncc(F)c(Nc3ccc(OC)c(Cl)c3)n2)cc1` [Cmpd 58], the “IC50 Ratio (Syk/JAK)” value under setting [2] amounted to 21. Same read-out and setting: under `CCN(CC)CCNC(=O)c1ccc(Nc2ncc(F)c(Nc3ccc(Cl)c(Cl)c3)n2)cc1` [Cmpd 59] stands 21; under `NC(=O)c1ccc(Nc2ncc(F)c(Nc3ccc4c(c3)NC(=O)C(CCO)O4)n2)cc1` (stereo not shown) [Cmpd 60], 20. Still for that read-out and setting: under `COC(=O)c1ccc(Nc2ncc(F)c(Nc3ccc(C(=O)OC)cc3)n2)cc1` [Cmpd 61] stands 20; under `O=[N+]([O-])c1cc(Nc2ccnc(Nc3ccc(Cl)c([N+](=O)[O-])c3)n2)ccc1Cl` [Cmpd 62], 19. Same read-out and setting: under `COc1ccc(Nc2nc(Nc3cccc(-c4nnc(C(C)(C)C)o4)c3)ncc2F)cc1OC` [Cmpd 63] stands 19; under `CS(=O)(=O)Nc1ccc(Nc2ncc(F)c(Nc3ccc(NS(C)(=O)=O)cc3)n2)cc1` [Cmpd 64], 19.
